Measured values from patent US11498899B2, “Nitrone herbicides” (FMC Corporation, priority 2016, dated 2022).

What was measured:
[1] = tested on: barnyardgrass (Echinochloa crus-galli); assay: Test A preemergence, visual injury rating 0-100 (0 no effect, 100 complete control); type: in vivo; settings: for Barnyardgrass plant response rating: 31 g ai/ha, 0 to 100 scale (0 no effect, 100 complete control), approx. 10 days; for Barnyardgrass plant response rating (0 to 100 scale): 125 g ai/ha
[2] = tested on: ducksalad (Heteranthera limosa); assay: Test B flooded paddy test, visual rating 0-100; settings: Flood, 250 g ai/ha, applied to paddy water, rated after 13 to 15 days
kochia (Kochia scoparia) [3] = assay: Test A preemergence, visual injury rating 0-100; type: in vivo; settings: for Kochia plant response rating: 31 g ai/ha, 0 to 100 scale (0 no effect, 100 complete control), approx. 10 days; for Kochia plant response rating (0 to 100 scale): 125 g ai/ha
[4] = tested on: ragweed (common ragweed, Ambrosia elatior); assay: Test A preemergence, visual injury rating 0-100; type: in vivo; settings: for Ragweed plant response rating: 31 g ai/ha, 0 to 100 scale (0 no effect, 100 complete control), approx. 10 days; for Ragweed plant response rating (0 to 100 scale): 125 g ai/ha
[5] = tested on: pigweed (Amaranthus retroflexus); assay: Test A preemergence, visual injury rating 0-100; type: in vivo; settings: for Pigweed plant response rating: 31 g ai/ha, 0 to 100 scale (0 no effect, 100 complete control), approx. 10 days; for Pigweed plant response rating (0 to 100 scale): 125 g ai/ha
[6] = tested on: ryegrass, Italian (Italian ryegrass, Lolium multiflorum); assay: Test A preemergence, visual injury rating 0-100; type: in vivo; settings: for Ryegrass, Italian plant response rating: 31 g ai/ha, 0 to 100 scale (0 no effect, 100 complete control), approx. 10 days; for Ryegrass, Italian plant response rating (0 to 100 scale): 125 g ai/ha
[7] = tested on: foxtail, green (green foxtail, Setaria viridis); assay: Test A preemergence, visual injury rating 0-100; type: in vivo; settings: for Foxtail, Green plant response rating: 31 g ai/ha, 0 to 100 scale (0 no effect, 100 complete control), approx. 10 days; for Foxtail, Green plant response rating (0 to 100 scale): 125 g ai/ha
[8] = tested on: wheat (Triticum aestivum); assay: Test A postemergence, visual injury rating 0-100; type: in vivo; settings: 0 to 100 scale
kochia (Kochia scoparia) [9] = assay: Test A postemergence, visual injury rating 0-100; type: in vivo; settings: 0 to 100 scale
[10] = tested on: barnyardgrass (Echinochloa crus-galli); assay: Test A postemergence, visual injury rating 0-100; type: in vivo; settings: 0 to 100 scale
[11] = tested on: ragweed (common ragweed, Ambrosia elatior); assay: Test A postemergence, visual injury rating 0-100; type: in vivo; settings: 0 to 100 scale
corn (Zea mays) = assay: Test A postemergence, visual injury rating 0-100; type: in vivo; settings: 0 to 100 scale
[12] = tested on: pigweed (Amaranthus retroflexus); assay: Test A postemergence, visual injury rating 0-100; type: in vivo; settings: 0 to 100 scale
[13] = tested on: ryegrass, Italian (Italian ryegrass, Lolium multiflorum); assay: Test A postemergence, visual injury rating 0-100; type: in vivo; settings: 0 to 100 scale
[14] = tested on: galium (catchweed bedstraw, Galium aparine); assay: Test A postemergence, visual injury rating 0-100; type: in vivo; settings: 0 to 100 scale
[15] = tested on: blackgrass (Alopecurus myosuroides); assay: Test A postemergence, visual injury rating 0-100; type: in vivo; settings: 0 to 100 scale
[16] = tested on: foxtail, green (green foxtail, Setaria viridis); assay: Test A postemergence, visual injury rating 0-100; type: in vivo; settings: 0 to 100 scale
rice (Oryza sativa) = assay: Test B flooded paddy test, visual rating 0-100 (0 no effect, 100 complete control); settings: Flood, 250 g ai/ha, applied to paddy water, rated after 13 to 15 days
[17] = tested on: barnyardgrass (Echinochloa crus-galli); assay: Test B flooded paddy test, visual rating 0-100; settings: Flood, 250 g ai/ha, applied to paddy water, rated after 13 to 15 days

## CC1=[N+]([O-])[C@H](C(=O)Nc2cccc(F)c2F)[C@@H](c2ccc(Cl)cc2)C1 [Compound 40, (2S,3R)-3-(4-chlorophenyl)-N-(2,3-difluorophenyl)-3,4-dihydro-5-methyl-2H-pyrrole-2-carboxamide 1-oxide]
[1]
  Barnyardgrass plant response rating: 100
  Barnyardgrass plant response rating (0 to 100 scale): 100
[2]
  Ducksalad plant response rating (0 to 100 scale): 95
Kochia (Kochia scoparia) [3]
  Kochia plant response rating: 0
  Kochia plant response rating (0 to 100 scale): 80
[4]
  Ragweed plant response rating: 20
  Ragweed plant response rating (0 to 100 scale): 80
[5]
  Pigweed plant response rating: 0
  Pigweed plant response rating (0 to 100 scale): 80
[6]
  Ryegrass, Italian plant response rating: 0
  Ryegrass, Italian plant response rating (0 to 100 scale): 10
[7]
  Foxtail, Green plant response rating: 100
  Foxtail, Green plant response rating (0 to 100 scale): 100
[8]; 31 g ai/ha
  Wheat plant response rating: 0
[8]; 125 g ai/ha
  Wheat plant response rating: 10
Kochia (Kochia scoparia) [9]; 31 g ai/ha
  Kochia plant response rating: 0
Kochia (Kochia scoparia) [9]; 125 g ai/ha
  Kochia plant response rating: 0
[10]; 31 g ai/ha
  Barnyardgrass plant response rating: 80
[10]; 125 g ai/ha
  Barnyardgrass plant response rating: 90
[11]; 31 g ai/ha
  Ragweed plant response rating: 0
[11]; 125 g ai/ha
  Ragweed plant response rating: 0
Corn (Zea mays); 31 g ai/ha
  Corn plant response rating: 20
Corn (Zea mays); 125 g ai/ha
  Corn plant response rating: 30
[12]; 31 g ai/ha
  Pigweed plant response rating: 0
[12]; 125 g ai/ha
  Pigweed plant response rating: 0
[13]; 31 g ai/ha
  Ryegrass, Italian plant response rating: 0
[13]; 125 g ai/ha
  Ryegrass, Italian plant response rating: 20
[14]; 31 g ai/ha
  Galium plant response rating: 10
[14]; 125 g ai/ha
  Galium plant response rating: 60
[15]; 31 g ai/ha
  Blackgrass plant response rating: 0
[15]; 125 g ai/ha
  Blackgrass plant response rating: 60
[16]; 31 g ai/ha
  Foxtail, Green plant response rating: 40
[16]; 125 g ai/ha
  Foxtail, Green plant response rating: 80
Rice (Oryza sativa)
  Rice plant response rating (0 to 100 scale): 25
[17]
  Barnyardgrass plant response rating (0 to 100 scale): 80

## CC1=[N+]([O-])[C@H](C(=O)Nc2cccc(F)c2F)[C@@H](c2ccc(C)cc2)C1 [Compound 42, (2S,3R)—N-(2,3-Difluorophenyl)-3,4-dihydro-5-methyl-3-(4-methylphenyl)-2H-pyrrole-2-carboxamide 1-oxide]
[1]
  Barnyardgrass plant response rating: 100
  Barnyardgrass plant response rating (0 to 100 scale): 100
[2]
  Ducksalad plant response rating (0 to 100 scale): 100
Kochia (Kochia scoparia) [3]
  Kochia plant response rating: 0
  Kochia plant response rating (0 to 100 scale): 90
[4]
  Ragweed plant response rating: 0
  Ragweed plant response rating (0 to 100 scale): 70
[5]
  Pigweed plant response rating: 0
  Pigweed plant response rating (0 to 100 scale): 80
[6]
  Ryegrass, Italian plant response rating: 0
  Ryegrass, Italian plant response rating (0 to 100 scale): 80
[7]
  Foxtail, Green plant response rating: 100
  Foxtail, Green plant response rating (0 to 100 scale): 100
[8]; 31 g ai/ha
  Wheat plant response rating: 20
[8]; 125 g ai/ha
  Wheat plant response rating: 80
Kochia (Kochia scoparia) [9]; 31 g ai/ha
  Kochia plant response rating: 0
Kochia (Kochia scoparia) [9]; 125 g ai/ha
  Kochia plant response rating: 30
[10]; 31 g ai/ha
  Barnyardgrass plant response rating: 50
[10]; 125 g ai/ha
  Barnyardgrass plant response rating: 90
[11]; 31 g ai/ha
  Ragweed plant response rating: 0
[11]; 125 g ai/ha
  Ragweed plant response rating: 30
Corn (Zea mays); 31 g ai/ha
  Corn plant response rating: 20
Corn (Zea mays); 125 g ai/ha
  Corn plant response rating: 50
[12]; 31 g ai/ha
  Pigweed plant response rating: 0
[12]; 125 g ai/ha
  Pigweed plant response rating: 20
[13]; 31 g ai/ha
  Ryegrass, Italian plant response rating: 0
[13]; 125 g ai/ha
  Ryegrass, Italian plant response rating: 30
[14]; 31 g ai/ha
  Galium plant response rating: 40
[14]; 125 g ai/ha
  Galium plant response rating: 60
[15]; 31 g ai/ha
  Blackgrass plant response rating: 80
[15]; 125 g ai/ha
  Blackgrass plant response rating: 80
[16]; 31 g ai/ha
  Foxtail, Green plant response rating: 50
[16]; 125 g ai/ha
  Foxtail, Green plant response rating: 90
Rice (Oryza sativa)
  Rice plant response rating (0 to 100 scale): 30
[17]
  Barnyardgrass plant response rating (0 to 100 scale): 90

## CC1=[N+]([O-])[C@@H](C(=O)Nc2cccc(F)c2F)[C@H](c2cccc(C(F)(F)F)c2)C1 [Compound 45]
[1]
  Barnyardgrass plant response rating: 40
  Barnyardgrass plant response rating (0 to 100 scale): 100
[2]
  Ducksalad plant response rating (0 to 100 scale): 95
Kochia (Kochia scoparia) [3]
  Kochia plant response rating: 0
  Kochia plant response rating (0 to 100 scale): 20
[4]
  Ragweed plant response rating: 0
  Ragweed plant response rating (0 to 100 scale): 80
[5]
  Pigweed plant response rating: 0
  Pigweed plant response rating (0 to 100 scale): 0
[6]
  Ryegrass, Italian plant response rating: 10
  Ryegrass, Italian plant response rating (0 to 100 scale): 80
[7]
  Foxtail, Green plant response rating: 90
  Foxtail, Green plant response rating (0 to 100 scale): 100
[8]; 31 g ai/ha
  Wheat plant response rating: 30
[8]; 125 g ai/ha
  Wheat plant response rating: 60
Kochia (Kochia scoparia) [9]; 31 g ai/ha
  Kochia plant response rating: 0
Kochia (Kochia scoparia) [9]; 125 g ai/ha
  Kochia plant response rating: 0
[10]; 31 g ai/ha
  Barnyardgrass plant response rating: 10
[10]; 125 g ai/ha
  Barnyardgrass plant response rating: 50
[11]; 31 g ai/ha
  Ragweed plant response rating: 0
[11]; 125 g ai/ha
  Ragweed plant response rating: 0
Corn (Zea mays); 31 g ai/ha
  Corn plant response rating: 40
Corn (Zea mays); 125 g ai/ha
  Corn plant response rating: 50
[12]; 31 g ai/ha
  Pigweed plant response rating: 0
[12]; 125 g ai/ha
  Pigweed plant response rating: 20
[13]; 31 g ai/ha
  Ryegrass, Italian plant response rating: 10
[13]; 125 g ai/ha
  Ryegrass, Italian plant response rating: 40
[14]; 31 g ai/ha
  Galium plant response rating: 20
[14]; 125 g ai/ha
  Galium plant response rating: 30
[15]; 31 g ai/ha
  Blackgrass plant response rating: 20
[15]; 125 g ai/ha
  Blackgrass plant response rating: 60
[16]; 31 g ai/ha
  Foxtail, Green plant response rating: 30
[16]; 125 g ai/ha
  Foxtail, Green plant response rating: 80
Rice (Oryza sativa)
  Rice plant response rating (0 to 100 scale): 0
[17]
  Barnyardgrass plant response rating (0 to 100 scale): 75
